Data taken from patent US20100138935A1, “Detection of cellular stress” (priority 2004, published 2010).

What was measured:
HOZ mice [1] = assay: Plasma ALT as a marker of hepatotoxicity in HOZ mice; type: in vivo, mouse
Procedure: (§1) Terminal blood samples were taken by cardiac puncture into lithium/heparin-coated tubes for preparation of plasma. Tissues, as defined in each protocol, were routinely dissected as follows:
(§2) Following removal into tubes suitable for plasma preparation, venous blood samples were mixed on a roller for 10 minutes then cooled on ice. Red blood cells were removed by centrifugation at 2,000 rpm for 10 minutes at 8-10° C. The supernatant (plasma) was transferred to a second tube and stored at −70° C. until required for analysis.
(§3) Plasma samples were analysed for appropriate analytes on a Roche autoanalyser (Cobas Integra 400) according to the manufacturer's instructions. The routine markers measured included: (for liver damage) plasma alanine aminotransferase (ALT), aspartate aminotransferase (AST) and alkaline phosphatase (ALP) and (for kidney damage) plasma creatinine and blood urea nitrogen (BUN).
Two plasma enzyme markers, ALT and AST, were used as markers of hepatotoxicity in HOZ mice treated with cadmium chloride or sodium arsenite. The results of this analysis for HOZ mice treated with 10 mg/kg cadmium chloride are shown in Table 1 and for HOZ mice treated with 2-8 mg/kg cadmium chloride or 13 mg/kg sodium arsenite in Tables 2 and 3.

HOZ mice [2] = assay: Plasma AST as a marker of hepatotoxicity in HOZ mice; type: in vivo, mouse
Procedure: as §1, §2, §3
Two plasma enzyme markers, ALT and AST, were used as markers of hepatotoxicity in HOZ mice treated with cadmium chloride or sodium arsenite. […]

HO-1 mRNA = assay: RT-PCR assay of endogenous HO-1 mRNA in HOZ mouse tissue; type: in vivo
Procedure: Analysis of the expression of endogenous genes was carried out by RT-PCR using the ABI Prism 7000 system. For RT-PCR analysis, frozen tissue samples were homogenised using a Polytron PT-mr2100 homogeniser in 1 ml TRI reagent (Sigma). Total RNA for each sample was isolated according to the manufacturer's instructions and RNA pellets stored at −70° C. under 75% ethanol. Each of the RNA pellets was resuspended in RNAase/DNAase free dH2O and quantified using a Genequant RNA/DNA calculator (Amersham). First strand cDNA synthesis was performed for each sample using 2 μg of total RNA and the Protoscript First Strand cDNA Synthesis Kit (New England Biolabs) according to the manufacturer's protocol. Additional steps to degrade RNA following cDNA synthesis were performed. Each sample was diluted to 50 μl with RNAase/DNAase-free dH2O and stored at −20° C.
In order to measure variation in p21 or Haemoxygenase-1 (HO-1) expression it was necessary to include an internal control. Amplification of β-Actin cDNA provides a standard to control for variations on RNA content between samples. The final reactions therefore consisted of two separate reactions (target gene and β-Actin cDNA amplification) performed simultaneously in a single tube. The PCR conditions used were 10 minutes at 95° C. followed by 40 cycles of denaturing for 15 seconds at 95° C. and annealing/extending for 1 minute at 60° C. The primers and probe for the p21 and HO-1 amplification reactions were obtained from ABI (Assay-On-Demand kit). These methods have been pre-validated for the standard conditions used on the ABI Prism 7000 system.
The effects of cadmium chloride on endogenous HO-1 expression were determined by RT-PCR assay of HO-1 mRNA levels in liver and kidney tissue from HOZ mice. […] The bars show relative concentrations of HO-1 mRNA assayed by RT-PCR in brain, kidney and liver tissue of mice that had received 10 mg/kg cadmium chloride 24 hours earlier compared with mice that had received saline and untreated mice. […]

[3] = HOZ mouse, 10 mg/kg i.p., 24 hours
[4] = female, 8 mg/kg, after 24 hours
[5] = male, 8 mg/kg, 24 hours after treatment

[Cl][Cd][Cl] [Cadmium Chloride, cadmium chloride]
ALT (HOZ mice [1]; [3]): 1834.8 U/L
Plasma ALT (HOZ mice [1]; female, 1 mg/kg, 8 hours): 33.3 u/L
Plasma ALT (HOZ mice [1]; female, 1 mg/kg, 24 hours): 28.2 u/L
Plasma ALT (HOZ mice [1]; female, 2 mg/kg, 8 hours): 22.8 u/L
Plasma ALT (HOZ mice [1]; female, 2 mg/kg, 24 hours): 26.1 u/L
Plasma ALT (HOZ mice [1]; female, 4 mg/kg, 8 hours): 55.6 u/L
Plasma ALT (HOZ mice [1]; female, 4 mg/kg, 24 hours): 23.7 u/L
increase in plasma ALT (HOZ mice [1]; female, 4 mg/kg, after 8 hours): 2.4 fold
increase in ALT (HOZ mice [1]; female, 4 mg/kg, second statement, printed as after 8 hours): ≤ 2 fold
Plasma ALT (HOZ mice [1]; female, 8 mg/kg, 8 hours): 3930.6 u/L
Plasma ALT (HOZ mice [1]; female, 8 mg/kg, 24 hours): 7010.4 u/L
increase in plasma ALT (HOZ mice [1]; female, 8 mg/kg, after 8 hours): 170 fold
increase in plasma ALT (HOZ mice [1]; [4]): 275 fold
Plasma ALT (HOZ mice [1]; male, 1 mg/kg, 8 hours): 70.3 u/L
Plasma ALT (HOZ mice [1]; male, 1 mg/kg, 24 hours): 33.1 u/L
Plasma ALT (HOZ mice [1]; male, 2 mg/kg, 8 hours): 21.7 u/L
Plasma ALT (HOZ mice [1]; male, 2 mg/kg, 24 hours): 19.4 u/L
Plasma ALT (HOZ mice [1]; male, 4 mg/kg, 8 hours): 50.4 u/L
Plasma ALT (HOZ mice [1]; male, 4 mg/kg, 24 hours): 74.7 u/L
Plasma ALT (HOZ mice [1]; male, 8 mg/kg, 8 hours): 50.1 u/L
Plasma ALT (HOZ mice [1]; male, 8 mg/kg, 24 hours): 306.3 u/L
increase in ALT (HOZ mice [1]; [5]): 7.9 fold
increase in ALT and AST (HOZ mice [1]; male, all other doses and time points): ≤ 2 fold
AST (HOZ mice [2]; [3]): 4643.1 U/L
Plasma AST (HOZ mice [2]; female, 1 mg/kg, 8 hours): 87.6 u/L
Plasma AST (HOZ mice [2]; female, 1 mg/kg, 24 hours): 87.5 u/L
Plasma AST (HOZ mice [2]; female, 2 mg/kg, 8 hours): 80.4 u/L
Plasma AST (HOZ mice [2]; female, 2 mg/kg, 24 hours): 104.7 u/L
Plasma AST (HOZ mice [2]; female, 4 mg/kg, 8 hours): 108.5 u/L
Plasma AST (HOZ mice [2]; female, 4 mg/kg, 24 hours): 89.1 u/L
increase in plasma AST (HOZ mice [2]; female, 4 mg/kg, at either time point (8, 24 hours)): no increase in plasma AST was observed
Plasma AST (HOZ mice [2]; female, 8 mg/kg, 8 hours): 13425.6 u/L
Plasma AST (HOZ mice [2]; female, 8 mg/kg, 24 hours): 8097.6 u/L
increase in plasma AST (HOZ mice [2]; female, 8 mg/kg, after 8 hours): 237 fold
increase in plasma AST (HOZ mice [2]; [4]): 97 fold
Plasma AST (HOZ mice [2]; male, 1 mg/kg, 8 hours): 100.2 u/L
Plasma AST (HOZ mice [2]; male, 1 mg/kg, 24 hours): 63.1 u/L
Plasma AST (HOZ mice [2]; male, 2 mg/kg, 8 hours): 66.4 u/L
Plasma AST (HOZ mice [2]; male, 2 mg/kg, 24 hours): 56.4 u/L
Plasma AST (HOZ mice [2]; male, 4 mg/kg, 8 hours): 132.3 u/L
Plasma AST (HOZ mice [2]; male, 4 mg/kg, 24 hours): 123.0 u/L
Plasma AST (HOZ mice [2]; male, 8 mg/kg, 8 hours): 92.4 u/L
Plasma AST (HOZ mice [2]; male, 8 mg/kg, 24 hours): 353.8 u/L
increase in AST (HOZ mice [2]; [5]): 3.8 fold
HO-1 mRNA levels in kidney and liver compared to controls (HO-1 mRNA; 10 mg/kg, after 24 hours): very substantially elevated
HO-1 mRNA in liver versus dose (HO-1 mRNA; both sexes, 0-8 mg/kg, 8 hours): clear dose-response relationship
HO-1 mRNA levels in liver (HO-1 mRNA; highest doses, 24 hours): slightly elevated
